Experimental data as given in patent US20190151241A1, “STABLE PHARMACEUTICAL INJECTABLE COMPOSITIONS OF MICAFUNGIN” (CADILA HEALTHCARE LIMITED, priority 2017, published 2019).
Starred links: 1 amine or outer side, 2 acyl side, 3 side chain; linkers in the order of their positions; H or OH if unused. Positions of bridges follow the written chain, without caps; N, C: chain ends. Non-standard residues stand in square brackets, D forms with d. Residues, ends and D or L forms follow the SMILES beside them. ξ: configuration not given here. *: point of attachment. hTyr(3S-OH,4S-OH,3'-OSO3H) = N[C@H](C(=O)O)[C@H](O)[C@@H](O)c1ccc(O)c(OS(=O)(=O)O)c1; Orn(4R-OH,5R-OH) = O=C([C@H](C[C@@H](O)[C@@H](O)N[*:3])N[*:1])[*:2]; Pro(3S-OH,4S-Me) = C[C@H]1CN[C@H](C(=O)O)[C@H]1O; X1 = CCCCCOc1ccc(-c2cc(-c3ccc(C(=O)*)cc3)no2)cc1; Gln(3R-OH) = NC(=O)C[C@@H](O)[C@H](N)C(=O)O; Hyp = O=C(O)[C@@H]1C[C@@H](O)CN1; ξThr(3R) = C[C@@H](O)C(N)C(=O)O

Assay: Inventors' finding on stability of micafungin in liquid state
Format: physicochemical

CCCCCOc1ccc(-c2cc(-c3ccc(C(=O)N[C@H]4C[C@@H](O)[C@@H](O)NC(=O)[C@@H]5[C@@H](O)[C@@H](C)CN5C(=O)[C@H]([C@H](O)CC(N)=O)NC(=O)[C@H]([C@H](O)[C@@H](O)c5ccc(O)c(OS(=O)(=O)O)c5)NC(=O)[C@@H]5C[C@@H](O)CN5C(=O)C([C@@H](C)O)NC4=O)cc3)no2)cc1 (stereo partly drawn) [micafungin, Micafungin] (X1-[Orn(4R-OH,5R-OH)][ξThr(3R)][Hyp][hTyr(3S-OH,4S-OH,3'-OSO3H)][Gln(3R-OH)][Pro(3S-OH,4S-Me)]; lactam 1-C)
Stability in liquid state: heat sensitive and shows temperature dependant degradation in liquid state
